Some results are limits rather than exact numbers.

Experiment [1] concerns isolierte linke Meerschweinchenvorhof. Description: Isolated, electrically stimulated left guinea pig atrium: refractory period, contraction force and excitability. It counts as cell-based, Meerschweinchen. The conditions noted are these: for Hemmung der Kontraktionskraft / Verlängerung der RP / inhibition at 10 µM / percent prolongation of refractory period at 10 µM: concentration not given; for ERP / EKK: ratio of prolongation of RP to inhibition of contraction force; for inhibition at 100 µM / inhibition at 10 µM: Cavia porcellus, read-out: Hemmung der Kontraktionskraft. The source says:
Für das Screening wurde […]. Die Vorhöfe wurden durch Rechteckimpulse ( ∼ 3 msec) mit einer Basisfrequenz von 2 Hz […]. Nun wurde mittels eines Extrastimulus, dessen […] und ohne Verbindung bestimmt. […] Um zwischen Na-antagonistischen und anderen Wirkungen unterscheiden zu […] RP, die Kontraktionskraft und die Erregbarkeit des […] untersucht.

Experiment [2] relates to teilweise depolarisierten Papillarmuskel. Description: Partially depolarised papillary muscle (extracellular potassium raised about 4-fold): mechanism of the negative inotropic effect. The format is cell-based. The conditions noted are these: partially depolarised membranes; cause of the negative inotropic effect; result in words. The source says: Weitere Untersuchungen wurden am teilweise depolarisierten Papillarmuskel durchgeführt, um zwischen der negativ inotropen Wirkung, welche auf Blockade der schnellen Na⁺-Kanälchen und einer, die auf anderen Mechanismen beruht, zu unterscheiden. Im Versuch wurde die teilweise Depolarisation der Herzmuskelzellmembran durch Erhöhung der extrazellulären Kalium-Konzentration auf das ca. 4-fache erreicht.

Where [3] appears, read: 10 µM according to b47, atrium stimulated at 2 Hz, mean ± spread.
The mark [4] stands for this setting: 100 µM, atrium stimulated at 2 Hz, mean ± spread, read-out: Verlängerung der RP.
Where [5] appears, read: 100 µM, atrium stimulated at 2 Hz, mean ± spread.
The mark [6] stands for this setting: 10 µM according to b47, atrium stimulated at 2 Hz, mean ± spread, read-out: Verlängerung der RP.

“1-[3-(2-Hydroxy-3-(4-methyl)-1-piperidinyl)-propoxy)-4-methyl-2-thienyl]-3-phenyl-1-propanon-hydrochlorid [LG 84-6-11]”: in experiment [1] (setting [3]), the “Hemmung der Kontraktionskraft” value is 59 ± 3,3% and the “Verlängerung der RP” value is reported as 157 ± 10,0%. For the same compound, the “ERP / EKK” value in experiment [1] (10 µM according to b47) was 2,7.

Turning to “1-[4-Methyl-3-(2-hydroxy-3-sek.butylaminopropoxy)-2-thienyl]-3-phenyl-1-propanon-chlorhydrat [LG 84-6-08]”, in experiment [1] (setting [3]), the “Hemmung der Kontraktionskraft” value was 65 ± 4,0% and the “Verlängerung der RP” value is reported as 129 ± 11,0%. Further, the “ERP / EKK” value in experiment [1] (10 µM according to b47) is listed as 2,0.

On to `C=C[C@H]1CN2CC[C@H]1C[C@@H]2[C@@H](O)c1ccnc2ccc(OC)cc12` [Chinidin, reference compound], for which the activation at 100 µM in experiment [1] (setting [4]) is above 161%. Besides, in experiment [1] (setting [5]), the inhibition at 100 µM came out at 77 ± 4%.

Regarding `CCC(C)(C)NCC(O)COc1c(C)csc1C(=O)CCc1ccccc1.Cl` (stereo not drawn) [LG 84-6-07, 1-[3-(2-Hydroxy-3-tert.pentylaminopropoxy)-4-methyl-2-thienyl]-3-phenyl-1-propanon-hydrochlorid], the inhibition at 10 µM in experiment [1] (setting [3]) was 52 ± 4%. The “Verhältnis zwischen der Verlängerung der Refraktärperiode und der gleichzeitig beobachteten Kontraktionskraftsenkung” value in experiment [1] (comparison among the tested antiarrhythmics, result in words) is given as “am größten”. In addition, the percent prolongation of refractory period at 10 µM in experiment [1] (setting [6]) was 66 ± 13%. Moreover, the “Dosen für Verlängerung der Refraktärperiode gegenüber Senkung der Kontraktionskraft” value in experiment [1] (doses for prolonging the refractory period compared with doses for lowering contraction force, result in words) was “mit wesentlich kleineren Dosen erzielt”. Moreover, the “ERP / EKK” value in experiment [1] (10 µM according to b47) is 1,3. Moreover, the “Erregbarkeit des Vorhofes” value in experiment [1] (result in words) is listed as “Verminderung der Erregbarkeit des Vorhofes”. For the same compound, the “negativ incorope Komponente” value in experiment [2] is recorded as “nur durch den Na⁺-Antagonismus hervogerufen”.

For `Cc1csc(C(=O)CCc2ccccc2)c1OCC(O)CNCC(C)(C)C.Cl` (stereo not drawn) [LG 84-6-09, 1-[3-(2-Hydroxy-3-(2,2-dimethylpropylamino)-propoxy)-4-methyl-2-thienyl]-3-phenyl-1-propanon-hydrochlorid], the inhibition at 10 µM in experiment [1] (setting [3]) is 37 ± 4.5%. Further, the percent prolongation of refractory period at 10 µM in experiment [1] (setting [6]) is 112 ± 18%. The “ERP / EKK” value in experiment [1] (10 µM according to b47) is given as 3,0.

As to `CCN(CC)CC(=O)Nc1c(C)cccc1C` [Lidocain, reference compound], the percent prolongation of refractory period at 100 µM in experiment [1] (setting [4]) came out at 63 ± 6%. For the same compound, the inhibition at 100 µM in experiment [1] (setting [5]) stood at 17 ± 5%. In addition, the “ERP / EKK” value in experiment [1] (100 µM) is listed as 3,7.

(Values after EP0233173A1, “1-[3-(2-Hydroxy-3-alkylamino-propoxy)-2-thienyl]-3-phenyl-1-propanones and their acid addition salts, process for their preparation and pharmaceutical compositions containing them” (Laevosan-Gesellschaft m.b.H., priority 1986, dated 1987).)
